# Assay results from patent US20030119733A1, “Compositions and methods for inhibiting hepatocyte invasion by malarial sporozoites” (New York University, priority 1992, published 2003).
# Tests used:
# [1] = tested on: binding of CSFZ(Cys) to HepG2 cells; assay: Inhibition of CS binding to HepG2 cells by glycosaminoglycans; parameters: species or system human; details: preincubated with 5 μg/ml CSFZ(Cys); FIG. 9
# Description: 10^5 HepG2 cells were deposited in 96-well Removawell tissue culture plates and allowed to grow overnight in MEM (Gibco) containing 10% FCS, 1 mM L-glutamine (Gibco), 3 mg/ml glucose (Sigma) and 1× non-essential amino acids (Gibco). The HepG2 cells were fixed with 4% paraformaldehyde in TBS (50 mM Tris-HCl, pH 7.5, 137 mM NaCl, 2 mM KCl), were washed 3 times with TBS, and were stored at 4° C. in BSA/TBS until use. CSFZ(Cys) at 5 μg/ml was incubated with increasing amounts of the presumed inhibitors at 37° C. for 15 min. Fifty μl of these mixtures were added to the cells, incubated for 1 hr at 37° C., washed 3× with TBS/0.05% Tween and then sequentially incubated with 50 μl of mAb 2A10 at a concentration of 10 μg/ml in TBS/BSA buffer for 30 min at 37° C., and 1:5000 dilution of goat anti-mouse IgG conjugated to alkaline phosphatase (Boehringer) for 30 minutes. […] After 15 minutes, the fluorescence was measured in a Fluoroskan II plate reader (ICN).
# Proteoglycans were preincubated with 5 μg/ml of CSFZ(Cys) and then were added to paraformaldehyde-fixed HepG2 cells. […] Each point represents the mean of triplicates. Percent inhibition was calculated by comparison to CSFZ(Cys) preincubated in medium alone.
# [2] = tested on: Vivax-2 binding to sulfatide; assay: Inhibition of binding of Vivax-2 to sulfatide; parameters: species or system P. vivax
# Description: (§1) Solid phase binding assays: Thirty μl of lipids or steroids dissolved in methanol (20-250 μg/ml) were dried into wells of microassay plates (Cat.# 3911—Falcon—Oxnard, Calif.). The plates were then blocked with 1% BSA/PBS pH 7.4 (BSA/PBS) for 30 minutes. Wells were incubated with recombinant protein (or with parasite extract) in PBS/BSA for 1 hour, washed 3 times with BSA/PBS, incubated for 1 hour with monoclonal antibodies 2F2 or 2A10 in BSA/PBS, washed 3 times, and then incubated with (10^5 cpm/well) ^125I protein A (Amersham Corp., Arlington Hts., Ill.). In the case of the P. berghei CS protein, wells were incubated with ^125I labelled mAb 3D11. Wells were washed again and the bound radioactive protein was counted in an LKB gamma-counter (model #1260, Pharmacia, Inc., Gaithersburg, Md.). For inhibition assays, the recombinant proteins were mixed with dilutions of the various polymers in BSA/PBS, the mixture was loaded into the wells of the microtiter plates, and the binding assay performed as above. See also, Roberts, et al. J. Biol. Chem. 260:9405-9411, 1985.
# [3] = tested on: Vivax-2 binding to cholesterol-sulfate; assay: Inhibition of binding of Vivax-2 to cholesterol-sulfate; parameters: species or system P. vivax
# Description: as §1
# [4] = target: T1, P.berghei CS protein binding to sulfatide (Plasmodium berghei, UniProt P06915); assay: Inhibition of binding of P.berghei CS protein to sulfatide
# T1 construct: as well as the native P. berghei CS protein; endogenous in cells; host or cells: P. berghei sporozoites (extract, 35,000 sporozoite equivalents/well)
# Description: as §1
# P. berghei sporozoites = assay: Infection assay of HepG2 cells with polymers; format: cell-based
# Description: Infection assay: Semiconfluent monolayers of HepG2 cells were grown in 10% FCS/MEM on 8 chamber slides (#4808 Lab-tek -Naperville, Ill.) for 24 hours prior to each experiment. Sporozoites were pre-incubated in media alone or with the various polymers for 15 minutes at 4° C. 5×10^4 sporozoites, in a volume of 10 μl, were added per chamber. After 4 hours of incubation at 37° C., the medium containing the sporozoites was gently aspirated, and 0.5 ml MEM/10% FCS was added. Fresh medium was added at 18 hours and 28 hours, and then cells were fixed with methanol containing 0.3% H2O2 at 48 hours. After fixation, the wells were blocked with 10% FCS/PBS and were incubated with 10 μg/ml of mAb 2E6. Binding of the mAb was detected with a polyclonal goat anti-mouse Ig conjugated to horseradish peroxidase. […] The parasites in each well are counted under a 40× light microscope objective.
# The cells were fixed and stained with mAb 2E6, followed by goat-anti-mouse linked to horseradish peroxidase. Numbers represent schizonts counted/20 fields under 40× magnification in a light microscope.
# [5] = target: hepatocyte plasma membrane receptor for the circumsporozoite protein on human hepatocytes and HepG2; assay: competition: fixed HepG2 cells preincubated with peptide, washed, then CSFZ (Cys) 2.5 µg/ml (competitor); cell ELISA
Molecule,inhibition of CS binding to HepG2 cells [1],% INHIBITION ([2]; inhibitor 1 μg/ml) [%],% INHIBITION ([2]; inhibitor 10 μg/ml) [%],% INHIBITION ([3]; inhibitor 1 μg/ml) [%],% INHIBITION ([3]; inhibitor 10 μg/ml) [%],% INHIBITION ([3]; inhibitor 100 μg/ml) [%],% INHIBITION ([3]; inhibitor 1 mg/ml) [%],% INHIBITION ([3]; inhibitor 10 mg/ml) [%],"% INHIBITION ([3]; inhibitor 10 mg/ml, listed as dextran-sulfate)",% INHIBITION ([4]; inhibitor 1 μg/ml) [%],% INHIBITION ([4]; inhibitor 10 μg/ml) [%],% INHIBITION ([4]; inhibitor 100 μg/ml) [%],"development of the liver stages (P. berghei sporozoites; added after 4 hours of contact, after invasion)",invasion of hepatocytes by sporozoites in vitro (P. berghei sporozoites; no conditions given),"effect on sporozoite invasion (P. berghei sporozoites; present during invasion, 5-50 μg/ml)",IC50 [5] [µg/mL]
dextran-sulfate,inhibited,19,70.2,12.2,21.1,25.6,33,40.5,less than 50%,31.2,63,79,not affected,inhibited,inhibited invasion in a dose-dependent fashion,
CGNGIQVRIKPGSANKPKDE [Pf2],,,,,,,,,,,,,,,,75
